{"source": "patent US20050033056A1", "about": "“Hydroxylated indole derivatives and uses thereof” (priority 2001, published 2005)", "key": {"[1]": {"molecular_target": "CYP3A4 (Homo sapiens, UniProt P08684)", "sequence (P08684 whole entry)": "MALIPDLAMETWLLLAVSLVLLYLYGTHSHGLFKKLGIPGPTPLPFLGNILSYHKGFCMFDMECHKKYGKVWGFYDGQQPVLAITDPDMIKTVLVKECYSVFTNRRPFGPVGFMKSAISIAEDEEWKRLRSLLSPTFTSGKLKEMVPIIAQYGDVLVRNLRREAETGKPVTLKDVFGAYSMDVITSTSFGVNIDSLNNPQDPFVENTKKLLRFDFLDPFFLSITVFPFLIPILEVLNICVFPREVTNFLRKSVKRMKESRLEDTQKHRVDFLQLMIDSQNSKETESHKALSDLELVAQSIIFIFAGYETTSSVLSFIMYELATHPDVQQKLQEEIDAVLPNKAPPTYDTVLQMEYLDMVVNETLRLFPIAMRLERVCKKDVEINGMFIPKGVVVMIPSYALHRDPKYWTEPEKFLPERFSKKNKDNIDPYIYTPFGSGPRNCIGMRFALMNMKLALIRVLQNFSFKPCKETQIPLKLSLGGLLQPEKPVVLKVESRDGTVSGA", "assay": "Compound 1 metabolism / metabolite formation by recombinant CYP3A4", "type": "in vitro ADME", "design": "purchased Gentest Corp. (Woburn, Mass.); host or cells: insect cells (microsomal preparation)", "method": "The metabolism of Compound 1 was determined by the disappearance of Compound 1 or the appearance of Compound 1 metabolites in reaction mixtures as compared to respective controls. Compound 1 was incubated in the reconstituted in vitro reaction systems containing pooled human liver S9 fractions, microsomal preparations, or recombinant hepatic CYP forms, including CYP1A2, CYP2C9, CYP2C19, CYP2D6, CYP2E1, and CYP3A4. The reaction mixture (total volume of 250 μL) contained 0.5 mg of liver microsomal protein, 50 or 25 pmol of recombinant CYP, and Compound 1 (50-80 μM) in 50 mM Tris buffer containing 15 mM MgCl2 (pH 7.4). After incubating at 37° C. with gentle shaking for 1 minute, the reaction was initiated by adding 25 μL of NADPH solution (20 mg/mL), and was carried out for 1 hour. The reaction was terminated by quickly cooling the test tube on ice, followed by the addition of an equal volume of 100% methanol. The samples were centrifuged in a desktop centrifuge at 14,000 rpm for 5 minutes, and the supernatants were filtered through syringe filters (13 mm, 0.45 μm). The filtrates were subjected to analysis using LC/MS (ion trap) or LC/MS/MS.\n1. LC/MS (LCQ ion trap mass spectrometer, Finnigan Corp., San Jose, Calif.): Hewlett Packard 1100 HPLC system (Waldbronn, Germany) consisted of a binary pump, an autosampler, a column compartment unit, and an online variable wavelength UV detector (VWD). The detector was monitored at 270 nm, which is the UVmax of Compound 1 predetermined by scanning between 225-400 nm using a photodiode array detector (PDA). The metabolites were separated on a Hewlett Packard Eclipse C18 column (150×2.1 mm). The mobile phases were 10 nmM ammonium acetate at pH 4.8 (A) and acetonitrile (B). The gradient (B) was 10% (0-6 minutes), 22% (12-22 minutes), 90% (25-30 minutes), and 10% (31 minutes and after). The flow rate was 0.25 mL/minute. Software Navigator (Version 1.2, Finnigan Corp.) was used to control the HPLC and MS and to acquire the data. […]"}, "[2]": {"system": "CYP2C19/2C8/2C9", "assay": "CYP induction in primary human hepatocytes, Western immunoblotting: CYP2C19/2C8/2C9", "type": "cell-based", "conditions": "10 or 50 μM for 72 hours; hepatocytes from three donors", "method": "Upon receiving a primary culture of human hepatocytes in 6-well plates, the culture medium containing streptomycin/penicillin was refreshed (2 ml/well). […] The culture medium and testing compounds were replenished every 24 hours.\nAt the end of the treatment, the cells were harvested into 1 mL of phosphate-buffered saline (PBS) after washing twice. The cells were precipitated by centrifugation, and were resuspended in PBS (approximately 50 μL).\nThe membrane was blocked by 5% non-fat dried milk (NFDM) blotting buffer (PBS containing 0.05% Tween 20) at 4° C. overnight. […] The membrane was rinsed six times (10 minutes each time) with the blotting buffer, and exposed to 1:10,000 diluted secondary antibodies labeled with horseradish peroxidase for 1 hour at room temperature. After being extensively rinsed with the blotting buffer, the membrane was exposed to the substrate of peroxidase (enhanced chemiluminescence reagent). CYP proteins were detected by […] using an X-ray developer."}}}
{"smiles": "CNC(=O)Cc1ccc2ccn(C3CCN(CCc4ccccc4F)CC3)c2c1", "note": "[Compound 1, N-methyl-[1-[1-(2-fluorophenethyl)piperidine-4-yl]-1H-indol-6-yl] acetamide]", "values": [{"measurement": "metabolism of Compound 1 by CYP3A4 (in words)", "setting": "[1]; approximately 50 μM of Compound 1", "value": "metabolized"}, {"measurement": "Rel. Amount (%)", "setting": "[1]; recombinant CYP3A4, estimated by UV absorbance at 270 nm, metabolite formed or Compound 1 left after 1 hour with NADPH", "value": 23, "unit": "%"}, {"measurement": "expression of CYP2C19/2C8/2C9 (Western immunoblotting)", "setting": "[2]", "value": "did not increase"}]}
